Data taken from US9314966B2, “Bandseal for PEG-filled hard capsule” (QUALICAPS CO., LTD., priority 2007, dated 2016).

Assays:
Assay type in all cases: physicochemical
[1] = Solubility in PEG400 (naked-eye inspection); settings: for solubility: polyethylene glycol 400 (PEG400), organic solvent or mixture, thermodynamic from solid, read-out: Solubility in PEG400, Evaluation results
Procedure: 0.5 g each of the high-molecular compounds and plasticizers were placed into separate test tubes. 5 mL of PEG400 was added to each test tube. After stirring with a mixer, the resulting mixtures were inspected with the naked eye and the high-molecular compounds and plasticizers were evaluated for their solubility in PEG400.

[2] = Solubility in 10 wt. % aqueous PVA copolymer solution; settings: aqueous with cosolvent or surfactant or cyclodextrin, thermodynamic from solid; 0.5 g in 10 wt. % aqueous PVA copolymer (POVACOAT Type F) solution; read-out: Solubility in the Aqueous PVA Copolymer Solution, Evaluation result
Procedure: (§1) Based on the results of Experimental Example 1, the candidates as raw materials for the band seal (see Table 2) were tested to research substances soluble in an aqueous solution of a PVA copolymer (POVACOAT Type F, product of Daido Kasei Corp., viscosity: 5.5 mPa·s, as measured at 25° C. using a 5% aqueous solution of the copolymer), and an aqueous solution of PVA (JP-05, product of Japan Vam & Poval Co., Ltd., average degree of polymerization: 500).
(§2) More specifically, 0.5 g each of the film-forming high-molecular compounds and plasticizers were placed into separate test tubes. A 10 wt. % aqueous solution of the PVA copolymer or a 10 wt. % aqueous solution of the PVA was added to each test tube. […] If some solids or liquid separation was observed, the mixture was evaluated as “not dissolved (insoluble)”.

[3] = Solubility in 10 wt. % aqueous PVA solution; settings: aqueous with cosolvent or surfactant or cyclodextrin, thermodynamic from solid; 0.5 g in 10 wt. % aqueous PVA (JP-05) solution; read-out: Solubility in the Aqueous PVA Solution, Evaluation result
Procedure: as §1, §2

[4] = 0.5 g in 5 mL of PEG400, stirred, naked eye

Molecule	solubility [1, 4] [mg/mL]	also measured
CC(O)CO (centres unmarked) [Propylene glycol]	> 100	
OC[C@@H](O)[C@@H](O)[C@H](O)[C@@H](O)CO [Sorbitol]	< 100	Solubility in PEG (in words) ([1]; 0.5 g in 5 mL of PEG400): insoluble; solubility [2]: > 100 mg/mL; solubility [3]: > 100 mg/mL
Polysorbate 80		Solubility in PEG400, Evaluation results [1, 4]: x (x: dissolved)

The next lines start with results.

solubility [1, 4] [mg/mL]	Molecule	also measured
> 100	OCC(O)CO [Glycerol]	
> 100	CC(=O)OCC(COC(C)=O)OC(C)=O [Triacetin]	
